Measured values as given in ChEMBL document CHEMBL1201862, “PubChem BioAssay data set” (2004).
The source made the active and inactive calls.

Tests used:
[1] = biological target: Serine/threonine-protein phosphatase (Homo sapiens, UniProt Q9BPW0); experiment: PP5 phosphatase inhibitors, dose response, biochemical, fluorescence (AID 2395)
INS1 = experiment: beta cell apoptosis inhibitors, cytokine rescue, dose response, luminescence, retest (AID 449756); type: functional, cell-based; settings: Rattus norvegicus;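 also: cell death triggered by IL-1 beta plus TNF-alpha plus IFN-gamma mixture; protective hits raise ATP signal compared with cytokine alone wells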
[2] = biological target: T1, Apoptotic protease-activating factor 1 (Homo sapiens, UniProt O14727); type: functional
T1 sequence (O14727 whole entry): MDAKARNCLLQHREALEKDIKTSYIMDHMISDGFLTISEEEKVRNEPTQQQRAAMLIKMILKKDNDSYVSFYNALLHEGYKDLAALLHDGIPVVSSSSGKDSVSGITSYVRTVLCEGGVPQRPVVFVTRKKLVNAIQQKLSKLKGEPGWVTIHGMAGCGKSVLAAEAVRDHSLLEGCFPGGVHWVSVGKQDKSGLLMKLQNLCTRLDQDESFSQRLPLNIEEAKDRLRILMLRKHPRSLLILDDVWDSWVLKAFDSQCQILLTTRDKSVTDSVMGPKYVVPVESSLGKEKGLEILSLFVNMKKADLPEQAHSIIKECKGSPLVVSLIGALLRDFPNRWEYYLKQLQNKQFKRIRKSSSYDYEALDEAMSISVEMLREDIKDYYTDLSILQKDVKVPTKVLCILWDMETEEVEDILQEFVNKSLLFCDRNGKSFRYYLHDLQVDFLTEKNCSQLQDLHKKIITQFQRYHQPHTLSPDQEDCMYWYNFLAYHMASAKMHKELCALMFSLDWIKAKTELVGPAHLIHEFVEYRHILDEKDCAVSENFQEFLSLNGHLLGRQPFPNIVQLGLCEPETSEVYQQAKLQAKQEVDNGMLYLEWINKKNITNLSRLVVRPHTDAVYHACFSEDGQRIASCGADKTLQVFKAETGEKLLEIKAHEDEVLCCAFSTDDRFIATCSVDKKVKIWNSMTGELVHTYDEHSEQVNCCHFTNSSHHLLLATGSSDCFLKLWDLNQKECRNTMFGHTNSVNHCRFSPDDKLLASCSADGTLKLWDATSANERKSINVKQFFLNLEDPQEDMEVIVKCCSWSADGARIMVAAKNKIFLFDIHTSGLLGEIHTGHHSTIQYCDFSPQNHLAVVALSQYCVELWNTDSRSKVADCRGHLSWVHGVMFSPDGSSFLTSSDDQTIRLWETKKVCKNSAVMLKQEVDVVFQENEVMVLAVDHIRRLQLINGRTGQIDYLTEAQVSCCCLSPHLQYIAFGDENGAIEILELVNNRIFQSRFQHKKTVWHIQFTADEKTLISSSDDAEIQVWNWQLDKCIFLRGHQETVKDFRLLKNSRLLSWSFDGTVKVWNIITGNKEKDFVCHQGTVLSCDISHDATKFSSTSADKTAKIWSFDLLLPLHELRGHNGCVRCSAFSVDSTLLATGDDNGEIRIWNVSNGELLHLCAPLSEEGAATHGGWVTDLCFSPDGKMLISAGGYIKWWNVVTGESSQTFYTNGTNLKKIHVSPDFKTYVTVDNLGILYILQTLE

[3] = cytotoxicity toward NIH3T3 fibroblasts, dose response, counter-screen, cell-based, ATP luminescence, mouse fibroblasts (AID 2010); type: functional;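 also: cells exposed to compound for about 90 hours before reading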
[4] = biological target: Serine/threonine-protein phosphatase PP1-alpha catalytic subunit (Homo sapiens, UniProt P62136); experiment: PP1 phosphatase inhibitors, dose response, biochemical, fluorescence (AID 2394)
Chain of Serine/threonine-protein phosphatase PP1-alpha catalytic subunit (P62136 whole entry): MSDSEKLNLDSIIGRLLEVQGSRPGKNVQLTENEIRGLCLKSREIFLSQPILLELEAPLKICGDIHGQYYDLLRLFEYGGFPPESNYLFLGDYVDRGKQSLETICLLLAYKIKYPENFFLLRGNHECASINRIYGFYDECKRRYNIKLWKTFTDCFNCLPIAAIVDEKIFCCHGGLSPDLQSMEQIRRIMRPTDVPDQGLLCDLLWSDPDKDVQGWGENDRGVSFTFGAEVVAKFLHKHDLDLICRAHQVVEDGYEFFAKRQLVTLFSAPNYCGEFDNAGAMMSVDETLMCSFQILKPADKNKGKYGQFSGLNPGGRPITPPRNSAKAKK

SUMO-activating enzyme [5] = biological target: T2, SUMO-activating enzyme (Homo sapiens, UniProt Q9UBT2); experiment: inhibitors of in vitro SUMOylation cascade, primary screen, biochemical, HTRF, uHTS (AID 2006); type: protein-complex assay
T2 sequence (Q9UBE0 whole entry): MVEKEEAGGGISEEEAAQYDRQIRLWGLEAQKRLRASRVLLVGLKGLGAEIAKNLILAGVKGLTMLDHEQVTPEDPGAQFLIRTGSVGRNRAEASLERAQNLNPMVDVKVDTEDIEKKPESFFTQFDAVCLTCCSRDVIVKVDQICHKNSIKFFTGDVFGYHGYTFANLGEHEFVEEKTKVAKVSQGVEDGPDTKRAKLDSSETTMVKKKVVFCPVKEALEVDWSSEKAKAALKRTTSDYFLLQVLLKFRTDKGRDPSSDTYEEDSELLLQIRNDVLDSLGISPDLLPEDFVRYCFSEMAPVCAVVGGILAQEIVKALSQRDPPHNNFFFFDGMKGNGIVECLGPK
T2 sequence (Q9UBT2 whole entry): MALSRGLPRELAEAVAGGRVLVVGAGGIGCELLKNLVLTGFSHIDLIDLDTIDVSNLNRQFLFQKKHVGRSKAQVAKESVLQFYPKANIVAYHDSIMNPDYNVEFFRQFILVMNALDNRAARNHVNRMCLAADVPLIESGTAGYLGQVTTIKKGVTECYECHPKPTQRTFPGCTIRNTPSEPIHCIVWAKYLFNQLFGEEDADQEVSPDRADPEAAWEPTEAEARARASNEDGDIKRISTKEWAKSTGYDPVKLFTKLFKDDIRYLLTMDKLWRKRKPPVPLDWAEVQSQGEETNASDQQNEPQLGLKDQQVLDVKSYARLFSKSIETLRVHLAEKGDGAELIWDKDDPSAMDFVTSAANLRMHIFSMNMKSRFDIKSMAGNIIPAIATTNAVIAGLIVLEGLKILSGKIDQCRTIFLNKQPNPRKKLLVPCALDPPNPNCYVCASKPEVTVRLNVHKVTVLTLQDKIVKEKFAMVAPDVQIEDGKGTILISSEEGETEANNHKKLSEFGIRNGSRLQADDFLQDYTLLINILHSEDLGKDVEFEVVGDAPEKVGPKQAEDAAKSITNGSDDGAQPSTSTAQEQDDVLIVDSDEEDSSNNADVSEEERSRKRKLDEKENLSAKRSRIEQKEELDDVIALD

Hexokinase HKDC1 = biological target: T3, Hexokinase HKDC1 (Homo sapiens, UniProt Q2TB90); experiment: HKDC1 hexokinase inhibitors, dose response, biochemical, W721R variant (AID 504729); type: functional
T3 sequence (Q2TB90 whole entry): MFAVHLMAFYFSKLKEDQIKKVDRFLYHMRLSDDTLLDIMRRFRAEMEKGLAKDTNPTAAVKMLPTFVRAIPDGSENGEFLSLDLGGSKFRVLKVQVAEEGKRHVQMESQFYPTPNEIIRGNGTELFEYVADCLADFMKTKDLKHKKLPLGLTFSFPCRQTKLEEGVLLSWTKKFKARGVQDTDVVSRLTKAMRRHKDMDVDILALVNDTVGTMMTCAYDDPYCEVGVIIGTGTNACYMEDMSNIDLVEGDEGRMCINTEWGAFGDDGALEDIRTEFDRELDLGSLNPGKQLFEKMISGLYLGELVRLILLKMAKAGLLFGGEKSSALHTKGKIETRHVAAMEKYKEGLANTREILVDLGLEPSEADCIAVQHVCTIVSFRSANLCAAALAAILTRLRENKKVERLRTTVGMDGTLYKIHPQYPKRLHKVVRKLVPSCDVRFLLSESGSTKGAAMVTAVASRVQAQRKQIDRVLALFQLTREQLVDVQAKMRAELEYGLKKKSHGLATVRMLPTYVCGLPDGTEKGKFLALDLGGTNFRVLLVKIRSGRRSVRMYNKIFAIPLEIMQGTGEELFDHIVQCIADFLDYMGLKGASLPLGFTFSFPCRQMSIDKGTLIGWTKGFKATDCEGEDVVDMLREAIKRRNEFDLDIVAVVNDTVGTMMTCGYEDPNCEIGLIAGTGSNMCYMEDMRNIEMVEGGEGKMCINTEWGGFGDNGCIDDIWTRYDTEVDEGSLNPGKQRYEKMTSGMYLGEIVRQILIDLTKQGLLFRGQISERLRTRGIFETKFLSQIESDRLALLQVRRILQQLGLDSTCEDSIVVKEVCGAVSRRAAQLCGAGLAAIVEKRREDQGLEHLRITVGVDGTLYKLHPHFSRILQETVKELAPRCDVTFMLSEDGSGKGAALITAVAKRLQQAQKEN

SUMO-activating enzyme [6] = biological target: T2, SUMO-activating enzyme; experiment: SUMOylation inhibitor hit validation, confirmation, SUMOylation inhibitor project, biochemical, AlphaScreen (AID 2018); type: functional
[7] = biological target: T4, Mitochondrial peptide methionine sulfoxide reductase (Bos taurus, UniProt P54149); type: functional;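 also: absorbance read-out, biochemical high-throughput dose-response screen for MsrA inhibitors, confirmatory; recombinant bovine MsrA coupled to E. coli TrxB with NADPH and selenocystamine; potency is for inhibitors of MsrA activity on DMSO substrate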
T4 sequence (P54149 whole entry): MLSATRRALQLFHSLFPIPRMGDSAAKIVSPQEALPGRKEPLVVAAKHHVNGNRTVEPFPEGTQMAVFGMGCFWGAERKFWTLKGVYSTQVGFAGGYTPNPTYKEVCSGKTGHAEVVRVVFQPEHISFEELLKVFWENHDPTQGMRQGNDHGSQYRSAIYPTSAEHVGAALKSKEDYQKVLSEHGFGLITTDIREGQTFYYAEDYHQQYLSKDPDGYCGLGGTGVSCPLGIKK

[8] = inhibitors of intracellular T. cruzi replication, confirmation, NIH3T3 host cells, beta-gal luminescence (AID 2044); type: functional, cell-based;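 also: intracellular parasites grown in NIH/3T3 mouse fibroblasts as host cells; luminescent beta-galactosidase reporter signal from transgenic T. cruzi replicating inside host cells; inhibitors lower the luminescence signal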
[9] = biological target: Heat shock protein HSP 90-alpha (Homo sapiens, UniProt P07900); experiment: Luminescence-based dose response biochemical high throughput screening assay for inhibitors of the Heat Shock Protein 90 (HSP90). [Related pubchem assays: 1831 (Summary AID.), 1846 (Confirmation screen.), 1789 (Primary screen.)]
[10] = C. albicans growth with fluconazole, confirmation, fluorescence, retest (AID 2467); type: functional, cell-based
[11] = growth suppression of beta-catenin-knockout colon cells, dose response, cell-based, HCT116, human colon tumor (AID 1045); type: functional;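 also: HCT116 colon tumor cells with beta catenin knocked out; cells exposed to compound for 60 hours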
X-box-binding protein 1 = X-box-binding protein 1 (Homo sapiens, UniProt P17861); type: functional, Cricetulus griseus;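 also: confirmatory dose-response counter-screen serving a CHOP assay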
Chain of X-box-binding protein 1 (P17861 whole entry): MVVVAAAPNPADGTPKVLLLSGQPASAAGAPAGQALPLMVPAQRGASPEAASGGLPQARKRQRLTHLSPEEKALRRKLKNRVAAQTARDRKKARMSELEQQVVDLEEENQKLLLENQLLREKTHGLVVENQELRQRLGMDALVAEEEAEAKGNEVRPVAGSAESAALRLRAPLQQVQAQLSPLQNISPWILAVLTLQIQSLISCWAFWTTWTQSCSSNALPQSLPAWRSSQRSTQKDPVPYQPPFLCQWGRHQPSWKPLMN

Cysteine protease ATG4B = biological target: T5, Cysteine protease ATG4B (Homo sapiens, UniProt Q9Y4P1); type: functional;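 also: Fluorescence-based dose-response confirmation assay measuring inhibition of ATG4B activity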
T5 sequence (Q9Y4P1 whole entry): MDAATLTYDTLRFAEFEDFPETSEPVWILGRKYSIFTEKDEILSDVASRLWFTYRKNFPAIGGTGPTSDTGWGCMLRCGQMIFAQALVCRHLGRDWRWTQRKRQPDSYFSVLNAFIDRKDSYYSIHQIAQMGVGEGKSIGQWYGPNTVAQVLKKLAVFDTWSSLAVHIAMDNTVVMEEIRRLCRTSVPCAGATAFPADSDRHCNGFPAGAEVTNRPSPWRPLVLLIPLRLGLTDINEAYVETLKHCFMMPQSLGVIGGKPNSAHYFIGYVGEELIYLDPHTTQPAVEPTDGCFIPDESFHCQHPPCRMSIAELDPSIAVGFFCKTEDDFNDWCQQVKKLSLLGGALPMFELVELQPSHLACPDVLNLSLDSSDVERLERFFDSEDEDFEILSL

[12] = off-target signal loss in HeLa-CEM21 co-culture – HeLa F-luc CTL cells, cherry-picked, counter-screen for HIV-1 Env fusion inhibitor project, dose response (AID 652040); type: functional, cell-based;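 also: potency for signal decrease marking cytotoxic or nonspecific inhibition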
Phospholipase A2 = Phospholipase A2 (Homo sapiens, UniProt P04054); type: functional;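 also: confirmatory dose-response counterscreen on phospholipase A2, testing hits that came from an ultra-high-throughput screen for ATG4B inhibitors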
Chain of Phospholipase A2 (P04054 whole entry, the tested form may be a part): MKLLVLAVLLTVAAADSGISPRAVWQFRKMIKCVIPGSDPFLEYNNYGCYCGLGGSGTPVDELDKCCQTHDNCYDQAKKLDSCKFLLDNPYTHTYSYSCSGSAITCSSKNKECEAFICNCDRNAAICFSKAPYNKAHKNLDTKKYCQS

[13] = CEM21 lymphoblast cell cytotoxicity, dose response, cytotoxicity control for viral fusion inhibitor project, CellTiter-Glo luminescence, cherry-picked (AID 652042); type: functional, cell-based;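 also: potency for signal decrease meaning cytotoxicity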
[14] = growth suppression of PTEN-null colon cells, dose response, cell-based, HCT116 PTEN knockout (AID 1047); type: functional;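 also: HCT116 colon tumor cells with PTEN knocked out; cells exposed to compound for 60 hours before readout; potency for loss of cell viability measured by luminescence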
[15] = NIH-3T3 fibroblast cytotoxicity, dose response, cytotoxicity control, cell-based, fluorescence, Alamar Blue, secondary assay (AID 2327); type: functional;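 also: NIH-3T3 mouse fibroblasts cultured with fluconazole at 8 µg/mL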
[16] = inhibitors of clade B AD8 Env fusion, dose response, cell-based, cherry-pick (AID 652062); type: functional;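 also: luciferase signal from cell-cell fusion driven by HIV-1 clade B AD8 Env; potency is for inhibitors of fusion seen as a drop in luminescence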
[17] = cytotoxicity in MIN6 insulinoma cells, dose response, cytotoxicity control, cell-based, mouse insulinoma (AID 2122); type: functional;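 also: confirmatory high-throughput counterscreen run to flag cytotoxic compounds; mouse MIN-6 beta cells carrying an insulin promoter eGFP reporter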
[18] = insulin promoter down-regulators in MIN6 cells, imaging, high-content screening, mouse beta cells (AID 1628); type: functional
[19] = inhibitors of HIV Env-driven cell fusion, dose response, cherry-pick (AID 652057); type: functional, cell-based
[20] = ZM109 Env clade C HIV-1 fusion inhibitors, dose response, HeLa effector, CEM target cells, luciferase, cherry-pick (AID 652058); type: functional, cell-based
[21] = biological target: T6, Ubiquitin-conjugating enzyme E2 N (Homo sapiens, UniProt P61088); type: functional;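 also: Dose-response confirmation in a TR-FRET assay detecting UBC13-driven polyubiquitin chain formation, inhibition measured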
T6 sequence (P61088 whole entry): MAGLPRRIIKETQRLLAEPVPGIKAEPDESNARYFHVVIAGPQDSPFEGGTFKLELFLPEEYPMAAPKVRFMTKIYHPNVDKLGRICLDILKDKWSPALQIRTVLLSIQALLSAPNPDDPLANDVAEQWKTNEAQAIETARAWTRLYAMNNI

Chain of Serine/threonine-protein phosphatase (Q9BPW0 whole entry): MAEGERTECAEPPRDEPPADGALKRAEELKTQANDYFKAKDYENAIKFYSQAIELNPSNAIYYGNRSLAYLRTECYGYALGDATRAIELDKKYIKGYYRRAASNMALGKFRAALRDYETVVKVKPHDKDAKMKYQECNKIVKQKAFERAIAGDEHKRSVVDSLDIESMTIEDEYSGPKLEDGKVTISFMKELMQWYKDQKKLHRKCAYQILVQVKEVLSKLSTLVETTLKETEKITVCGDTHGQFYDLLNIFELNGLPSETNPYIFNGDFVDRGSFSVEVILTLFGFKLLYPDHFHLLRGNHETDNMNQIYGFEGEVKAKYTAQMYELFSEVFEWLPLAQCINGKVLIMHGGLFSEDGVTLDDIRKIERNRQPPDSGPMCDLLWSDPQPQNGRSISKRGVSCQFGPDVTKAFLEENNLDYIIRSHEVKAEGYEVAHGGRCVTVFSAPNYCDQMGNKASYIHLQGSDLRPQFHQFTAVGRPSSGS

For `CC(=O)Nc1ccc(NC2=C/C(=N/S(=O)(=O)c3cccs3)c3ccccc3C2=O)cc1`, the IC50 [1] was 12.3 µM (not active), the AC50 (INS1) was 4.23 µM (active) and the IC50 [2] was 1.48 µM (active). For the same molecule, the EC50 [3] was 3.58 µM (active), the IC50 [4] was > 67 µM (not active) and the IC50 (SUMO-activating enzyme [5]) was > 100 µM (inactive). For the same molecule, the IC50 (Hexokinase HKDC1) was 3.72 µM (active), the IC50 (SUMO-activating enzyme [6]) was 1.34 µM (active) and the IC50 [7] was 14.3 µM (inactive). The EC50 [8] was 3.44 µM (active) and the IC50 [9] was 1.61 µM (active).

With `Cc1cc(Nc2ccc(Cl)cc2)nc(NCc2ccccc2)n1` the EC50 [10] was 2.45 µM (active), the EC50 [11] was 6.7 µM (active) and the “Absolute IC50 (XBP1)” value (X-box-binding protein 1) was < 10 µM. The IC50 (Cysteine protease ATG4B) was 10.9 µM (active), the AC50 [12] was 4.05 µM (active) and the IC50 (Phospholipase A2) was 15.4 µM (active). The AC50 [13] was 15.3 µM (active), the EC50 [14] was 5.72 µM (active) and the EC50 [15] was > 150 µM (inactive). The AC50 [16] was 8.5 µM (active), the IC50 [17] was 0.878 µM (active) and the IC50 [18] was 1.51 µM (active). For the same molecule, the AC50 [19] was 2.98 µM (active), the AC50 [20] was 3.31 µM (active) and the IC50 [21] was > 20 µM (inactive).
